Key:
[1] = test system: Female mice; assay: Skin sensitization test by local lymph node assay (LLNA) method, SI value of materials; type: in vivo; conditions: for SI (stimulation index, LLNA): test substance 50.0 w/v % in acetone:olive oil 4:1, 25 microliters per auricle, once a day for three days, BrdU intake by ELISA
Excerpt: The present disclosure can provide an active-energy-ray-curable aqueous composition excellent in scratch resistance and storage stability and safe in skin sensitizing potential. Safety in skin sensitizing potential means that a SI value, which is a degree of sensitizing potential, is 3 or lower in a skin sensitization test by the LLNA method.
The “LLNA method” mentioned above is a skin sensitization test stipulated in OECD (Organisation for Economic Co-operation and Development) Test Guidelines. As described in literatures (e.g., “Functional Material”, September 2005 issue, Vol. 25, No. 9, p. 55), LLNA method judges that a stimulation index (SI value) of 3 or lower as a degree of skin sensitizing potential is non-problematic in terms of skin sensitizing potential.
The SI value was measured in the manner described below by a skin sensitization test according to a local lymph node assay (LLNA) method.
As the positive control substance, α-hexyl cinnamaldehyde (HCA, obtained from Wako Pure Chemical Industries, Ltd.) was used.
As the medium, a mixture liquid containing acetone (obtained from Wako Pure Chemical Industries, Ltd.) and olive oil (obtained from Fudimi Pharmaceutical Co., Ltd.) in a volume ratio of 4:1 (acetone:olive oil) was used.
Female mice were acclimated to the test substance, the positive control, and the medium control for 8 days including 6-day quarantine. No abnormalities were found in all of the animals during the quarantine/acclimation period.
Based on the body weights measured 2 days before the initiation of sensitization, the animals were separated into […] (4 mice/group) by the body weight stratified random sampling method in a manner that the body weight of each individual was within ±20% of the average body weight of all individuals. Each of the animals was 8 weeks old to 9 weeks old at the time of the initiation of sensitization.
The test substance was weighed out in a volumetric flask, and the volume of the test substance was adjusted to 1 mL with addition of the medium. The prepared liquid was poured into a light-blocked airtight container (formed of glass).
HCA was accurately weighed out in an amount of about 0.25 g, and adjusted to 1 mL with addition of the medium, to prepare a 25.0 w/v % liquid. The prepared liquid was poured into a light-blocked airtight container (formed of glass).
5-Bromo-2′-deoxyuridine (BrdU, obtained from Nacalai Tesque, Inc.) (200 mg) was accurately weighed out in a volumetric flask, and dissolved in saline (obtained from Otsuka Pharmaceutical Co., Ltd.) added in the flask by ultrasonic irradiation. Subsequently, the resultant was adjusted to a volume of 20 mL, to prepare a 10 mg/mL liquid (BrdU preparation liquid). The prepared liquid was sterilized by filtration through a sterilized filtration filter and poured into a sterilized container.
The preparation liquids of each test substance and the positive control substance, and the medium were each applied to both auricles of the animals by 25 microliters each. A micropipetter was used for the application. This treatment was performed once a day for three consecutive days.
About 48 hours after the final sensitization, the BrdU preparation liquid was intraperitoneally administered once by 0.5 mL per animal.
About 24 hours after the BrdU administration, the animals were subjected to euthanasia, and their auricular lymph nodes were removed. Surrounding tissues of the auricular lymph nodes were removed, and the auricular lymph nodes on both sides were collectively weighted. The average and the standard error of the weights of the auricular lymph nodes were calculated per group. After the mass measurement, the auricular lymph nodes were cryopreserved per individual in a biomedical freezer set to −20 degrees C.
After the auricular lymph nodes were returned to room temperature, the auricular lymph nodes were ground with addition of saline and suspended in the saline. […]

[2] = type: cell-based; conditions: OECD TG471, ±S9 mix
Description: (§1) As a safety test, AMES test was performed according to OECD test guideline TG471 (±S9 mix), and the result was negative. Oral toxicity was tested according to OECD test guideline TG423. […] Skin stimulation was tested according to OECD test guideline TG404, and the result was PII=0.5. Skin sensitizing potential was tested according to OECD test guideline TG442B.

[3] = Oral toxicity according to OECD test guideline TG423; type: in vivo
Description: as §1

[4] = type: in vivo; conditions: OECD TG404
Description: as §1

Row | Compound | SI (stimulation index, LLNA) [1] | further results
1 | C=CC(=O)N(C)CC(=O)OC [Example A1-1, N-acryloyl-N-methylglycinemethyl ester] | (see Synthesis example 1) SI = 1.00 | SI value (skin sensitizing potential) ([1]; OECD test guideline TG442B): 1.00; AMES test result [2]: negative; Fatal cases in oral toxicity test ([3]; OECD TG423): none of six cases was a fatal case; LD50 ([3]; in vivo, 2000 mg/kg, OECD TG423, oral): ≥ 2000 mg/kg; PII (skin stimulation) [4]: 0.5
2 | C=CC(=O)N(C)CC(=O)OCC [Example A1-2, N-acryloyl-N-methylglycineethyl ester] | (see Synthesis example 2) SI = 1.02 | 
3 | C=CC(=O)N(C)C(C)C(=O)OC (stereo not drawn) [Example A1-4, N-acryloyl-N-methylalaninemethyl ester] | (see Synthesis example 4) SI = 1.12 | 
4 | C=CC(=O)N1CCC(C(=O)OCC)CC1 [Example A1-7, ethyl N-acryloylpiperidine-4-carboxylate] | (see Synthesis example 7) SI = 1.70 | 
5 | C=CC(=O)N(C)CCOC(C)=O [Example A1-8, N-(2-Acetyloxyethyl)-N-methyl acrylamide] | (see Synthesis example 13) SI = 1.10 | 
6 | C=C(C)C(=O)OCCO [Example A2-1, 2-hydroxyethyl methacrylate, reference compound] | Tokyo Chemical Industry Co., Ltd., “2-hydroxyethyl methacrylate” SI = 1.26 | 
7 | C=CC(=O)OC1CC2CCC1(C)C2(C)C (stereo not drawn) [Example A2-2, Isobornyl acrylate, reference compound] | Osaka Organic Chemical Industry Ltd., “Isobornyl acrylate”, SI = 8.30 | 
8 | C=C(C)C(=O)OCCOCCOC(=O)C(=C)C [Example B1-1] | Shin-Nakamura Chemical Co., Ltd., “2G”, SI = 1.05 | 
9 | C=C(C)C(=O)OCC(CC)(COC(=O)C(=C)C)COC(=O)C(=C)C [Example B1-3] | Shin-Nakamura Chemical Co., Ltd., “TMPT”, SI = 1.03 | 
10 | C=C(C)C(=O)OCC(COC(=O)C(=C)C)OC(C)=O [Example B1-6, 2-acetyl-1,3-glycerol dimethacrylate] | (see Synthesis example 8) SI = 1.40 | 
11 | C=CC(=O)N(C)CCN(C)C(=O)C=C [Example B2-1] | (see Synthesis example 9) SI = 1.20 | 
12 | C=CC(=O)N(CC)CCN(CC)C(=O)C=C [Example B2-2] | (see Synthesis example 10) SI = 1.33 | 
13 | C=CC(=O)N(C)CCCCCCN(C)C(=O)C=C [Example B2-4] | (see Synthesis example 12) SI = 1.58 | 
14 | C=CC(=O)NCNC(=O)C=C [Example B2-5] | Tokyo Chemical Industry Co., Ltd., (product No. M2877), SI = 1.08 | 
15 | C=CC(=O)NCCNC(=O)C=C [Example B2-6] | Tokyo Chemical Industry Co., Ltd., (product No. E1086), SI = 1.23 | 
16 | C=CC(=O)NC(O)C(O)NC(=O)C=C (stereo not drawn) [Example B2-7] | Tokyo Chemical Industry Co., Ltd., (product No. D2864), SI = 1.01 | 
17 | C=CC(=O)NCCN(CCNC(=O)C=C)C(=O)C=C [Example B2-9] | FUJIFILM Corporation, FOM-03007, SI = 1.44 | 
18 | C=CC(=O)NCCCOCCOCCOCCCNC(=O)C=C [Example B2-10] | FUJIFILM Corporation, FOM-03008, SI = 1.24 | 
19 | C=CC(=O)NCCN(CCN(CCNC(=O)C=C)C(=O)C=C)C(=O)C=C [Example B2-11] | FUJIFILM Corporation, FOM-03009, SI = 1.52 | 
